Measurements: ChEMBL document CHEMBL1158200, “Coriadienin, the first annonaceous acetogenin with two double bonds isolated from Annona coriaceae” (J Nat Prod, 1996)
≈ marks a conversion by molar mass, not a printed value.

Tests used:
[1] = Cytotoxicity against african green monkey Vero cells; assay type: cell-based; settings: chlorocebus sabaeus, read-out: ED50 (the source's name)
[2] = test system: KB; assay: Cytotoxicity against human KB cells; assay type: functional

Compound | CC50 [1] | ED50 [2] | EC50 ([2]; Homo sapiens, KB, read-out: ED50 (the source's name))
CCCCCCCCCCCC[C@H](O)[C@@H](O)CC/C=C\CC[C@@H](O)[C@H]1CCC(CCCCCC(O)CC2=CC(C)OC2=O)O1 (some centres not stated) [CORIACIN] | 0.0057 mg/L (≈ 0.00915 µM) | <3 ×10⁻⁷ ug/ml | –
CCCCCCCCCCCC[C@H](O)[C@@H](O)CC/C=C\CC[C@@H](O)[C@H]1CCC(CCCCCCCC2=CC(C)OC2=O)O1 (some centres not stated) | 0.05 mg/L (≈ 0.0824 µM) | 6 ×10⁻⁴ ug/ml | –
CCCCCCCCCCCC[C@H](O)[C@@H](O)CCC1OC1CCC1OC1CCC(O)CCCCCC(O)CC1=CC(C)OC1=O (some centres not stated) [BISEPOXYCORIADIENIN] | 0.013 mg/L (≈ 0.0203 µM) | 2.5 ×10⁻⁷ ug/ml | –
CCCCCCCCCCCCCCC(O)C(O)CC[C@H](O)[C@H]1CC[C@H](CCCCC[C@@H](O)CC2=C[C@H](C)OC2=O)O1 (some centres not stated) [GIGANTETRONENIN] | 0.0057 mg/L (≈ 0.00955 µM) | <3 ×10⁻⁷ ug/ml | –
CCCCCCCCCCCC[C@H](O)[C@@H](O)CC/C=C\CC/C=C\CCC(O)CCCCCC(O)CC1=CC(C)OC1=O (some centres not stated) [CORIADIENIN] | 0.15 mg/L (≈ 0.247 µM) | 1.6 ×10⁻⁶ ug/ml | –
CC(=O)O[C@H]1C(=O)[C@@]2(C)[C@H]([C@H](OC(=O)c3ccccc3)[C@]3(O)C[C@H](OC(=O)[C@H](O)[C@@H](NC(=O)c4ccccc4)c4ccccc4)C(C)=C1C3(C)C)[C@]1(OC(C)=O)CO[C@@H]1C[C@@H]2O [PACLITAXEL] | > 0.3 mg/L | – | 0.02 mg/L (≈ 0.0234 µM)
